# Measured values taken from patent US8008291B2 (Mimetica Pty Ltd, priority 2008, dated 2011).
# Target: T1, human MC5R (hMC5R) (Homo sapiens, UniProt P33032)
# T1 construct: purchased Perkin Elmer RBXMC5M400UA
# Experiment: Human MC5R radioligand binding assay (membranes, [125I] NDP-MSH displacement)
# Settings: hMC5R binding; tested as trifluoroacetate or hydrochloride salts, or free bases; read-out: MC5R radioligand IC50
# Experimental: Assessments of compound binding to human MC5R (hMC5R) ) by displacement of an ^125I-labeled NDP-MSH receptor ligand peptide were performed essentially as described in the data sheets produced by Perkin Elmer to accompany their frozen hMC5R membranes (Perkin Elmer catalog number RBXMC5M400UA).
# [^125I] NDP-MSH: radiolabeled in house and purified by HPLC:
# • Na^125I (0.5 mCi, 17.4 Ci/mg) was added to 50 μL sodium phosphate (50 mM, pH7.4) in an eppendorf tube precoated with IODOGEN. After incubation for 10 mins the phosphate buffer containing the iodine was added to NDP-MSH (10 ul at 1 mg/mL) in a separate eppendorf tube. This was incubated for a further 10 mins. The iodinated NDP-MSH was purified by HPLC on a Zorbax SB 300 column using solvent A: 0.05% TFA and solvent B: 90% acetonitrile 0.045% TFA with a linear gradient, 0-67% B over 60 mins. […] Resuspended membranes were kept on ice until they were added to the wells of the plate. Binding Protocol for 400 microassays per vial: • Assays were performed in 96 well polypropylene plates. […] This was incubated for 1 hr at 37° C.
# T1 sequence (P33032 whole entry): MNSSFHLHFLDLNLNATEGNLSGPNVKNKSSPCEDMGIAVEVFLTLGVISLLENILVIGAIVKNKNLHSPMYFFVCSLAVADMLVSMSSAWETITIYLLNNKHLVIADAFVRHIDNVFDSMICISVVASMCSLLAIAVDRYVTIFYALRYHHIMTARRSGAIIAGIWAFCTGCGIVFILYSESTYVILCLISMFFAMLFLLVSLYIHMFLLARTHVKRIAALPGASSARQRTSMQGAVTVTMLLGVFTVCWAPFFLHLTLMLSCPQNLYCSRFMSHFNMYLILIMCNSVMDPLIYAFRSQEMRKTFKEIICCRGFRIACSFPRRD
row,IC50 [nM],Structure (SMILES)
1,< 100,"CC1CC(C)CC(CN2CC[C@@H](CNC(=O)c3ccc4ccccc4c3)N[C@@H](CCCNC(=N)N)C2=O)C1 (stereo partly drawn) [Compound 298, N-(((3S,5S)-1-((3,5-dimethylcyclohexyl)methyl)-3-(3-guanidinopropyl)-2-oxo-1,4-diazepan-5-yl)methyl)-2-naphthamide]"
2,< 1000,"N=C(N)NCCC[C@@H]1N[C@H](CNC(=O)C2CC2c2ccccc2)CCN(CC(c2ccccc2)c2ccccc2)C1=O (stereo partly drawn) [Compound 174, N-(((3S,5S)-1-(2,2-diphenylethyl)-3-(3-guanidinopropyl)-2-oxo-1,4-diazepan-5-yl)methyl)-2-phenylcyclopropanecarboxamide]"
3,< 1000,"C#Cc1cc(C#C)cc(CN2CC[C@@H](CNC(=O)c3ccc4ccccc4c3)N[C@@H](CCCN)C2=O)c1 [Compound 360, N-(((3S,5S)-3-(3-aminopropyl)-1-(3,5-diethynylbenzyl)-2-oxo-1,4-diazepan-5-yl)methyl)-2-naphthamide]"
4,< 10,"CC[C@H](CN1CC[C@@H](CNC(=O)c2ccc(Cl)cc2Cl)N[C@@H](CCN2CCCCC2)C1=O)c1ccccc1 [Compound 534, 2,4-dichloro-N-(((3S,5S)-2-oxo-1-((S)-2-phenylbutyl)-3-(2-(piperidin-1-yl)ethyl)-1,4-diazepan-5-yl)methyl)benzamide]"
5,< 1000,"CCOC(=O)C(CN1CC[C@@H](CNC(=O)c2ccc3ccccc3c2)N[C@@H](CCCNC(=N)N)C1=O)c1ccccc1 (stereo partly drawn) [Compound 296, ethyl 3-((3S,5S)-5-((2-naphthamido)methyl)-3-(3-guanidinopropyl)-2-oxo-1,4-diazepan-1-yl)-2-phenylpropanoate]"
6,< 100,"O=C(/C=C/c1ccc(Cl)cc1)NC[C@@H]1CCN(CC(c2ccccc2)c2ccccc2)C(=O)[C@H](CCN2CCCC2)N1 [Compound 380, (E)-3-(4-chlorophenyl)-N-(((3S,5S)-1-(2,2-diphenylethyl)-2-oxo-3-(2-(pyrrolidin-1-yl)ethyl)-1,4-diazepan-5-yl)methyl)acrylamide]"
7,< 1000,"NC[C@@H]1N[C@H](CNC(=O)c2ccc3ccccc3c2)CCN(CC(c2ccccc2)c2ccccc2)C1=O [Compound 271, N-(((3S,5S)-3-(aminomethyl)-1-(2,2-diphenylethyl)-2-oxo-1,4-diazepan-5-yl)methyl)-2-naphthamide]"
8,< 10000,"NCC[C@@H]1N[C@H](CNC(=O)c2ccc(C(F)(F)F)cc2)CCN(CC(c2ccccc2)c2ccccc2)C1=O [Compound 435, N-(((3S,5S)-3-(2-aminoethyl)-1-(2,2-diphenylethyl)-2-oxo-1,4-diazepan-5-yl)methyl)-4-(trifluoromethyl)benzamide]"
9,< 10000,"N=C(N)NCCC[C@@H]1N[C@H](CNC(=O)c2cc3ccccc3o2)CCN(CC(c2ccccc2)c2ccccc2)C1=O [Compound 132, N-(((3S,5S)-1-(2,2-diphenylethyl)-3-(3-guanidinopropyl)-2-oxo-1,4-diazepan-5-yl)methyl)benzofuran-2-carboxamide]"
10,< 10000,"N=C(N)NCCC[C@@H]1N[C@H](CNC(=O)c2ccc3ccccc3c2)CCN(C[C@@H](NC(=O)C2CCCCC2)c2ccccc2)C1=O [Compound 270, N-(((3S,5S)-1-((S)-2-(cyclohexanecarboxamido)-2-phenylethyl)-3-(3-guanidinopropyl)-2-oxo-1,4-diazepan-5-yl)methyl)-2-naphthamide]"
11,< 1000,"CC(C)NCC[C@@H]1N[C@H](CNC(=O)c2ccc(Cl)c(Cl)c2)CCN(CC(c2ccccc2)c2ccccc2)C1=O [Compound 383, 3,4-dichloro-N-(((3S,5S)-1-(2,2-diphenylethyl)-3-(2-(isopropylamino)ethyl)-2-oxo-1,4-diazepan-5-yl)methyl)benzamide]"
12,< 1000,"CCC(CN1CC[C@@H](CNC(=O)c2ccc3ccccc3c2)N[C@@H](CCCN)C1=O)c1ccccc1 (stereo partly drawn) [Compound 324, N-(((3S,5S)-3-(3-aminopropyl)-2-oxo-1-(2-phenylbutyl)-1,4-diazepan-5-yl)methyl)-2-naphthamide]"
13,< 100,"N=C(N)NCCC[C@@H]1N[C@H](CNC(=O)c2ccc3ccccc3c2)CCN(CC(c2ccc(F)cc2)c2ccc(F)cc2)C1=O [Compound 250, N-(((3S,5S)-1-(2,2-bis(4-fluorophenyl)ethyl)-3-(3-guanidinopropyl)-2-oxo-1,4-diazepan-5-yl)methyl)-2-naphthamide]"
14,< 1000,"N=C(N)NCCC[C@@H]1N[C@H](CNC(=O)c2cnc3ccccc3c2)CCN(CC2CCCCC2)C1=O [Compound 482, N-(((3S,5S)-1-(cyclohexylmethyl)-3-(3-guanidinopropyl)-2-oxo-1,4-diazepan-5-yl)methyl)quinoline-3-carboxamide]"
15,< 10000,"Cc1c(C(=O)NC[C@@H]2CCN(CC(c3ccccc3)c3ccccc3)C(=O)[C@H](CCCN)N2)cnn1-c1ccccc1 [Compound 241, N-(((3S,5S)-3-(3-aminopropyl)-1-(2,2-diphenylethyl)-2-oxo-1,4-diazepan-5-yl)methyl)-5-methyl-1-phenyl-1H-pyrazole-4-carboxamide]"
16,< 1000,"Cc1ccc(/C=C/C(=O)NC[C@@H]2CCN(CC(c3ccccc3)c3ccccc3)C(=O)[C@H](CCCNC(=O)C3CCCCC3)N2)cc1 [Compound 294, N-(3-((2S,7S)-4-(2,2-diphenylethyl)-3-oxo-7-(((E)-3-p-tolylacrylamido)methyl)-1,4-diazepan-2-yl)propyl)cyclohexanecarboxamide]"
17,< 100,"CC[C@H](CN1CC[C@@H](CNC(=O)c2ccc3cc(Cl)ccc3c2)N[C@@H](CNC(=N)N)C1=O)c1ccccc1 [Compound 500, 6-chloro-N-(((3S,5S)-3-(guanidinomethyl)-2-oxo-1-((S)-2-phenylbutyl)-1,4-diazepan-5-yl)methyl)-2-naphthamide]"
18,< 100,"C=C(C)[C@@H](CC)CN1CC[C@@H](CNC(=O)c2ccc3cc(Cl)ccc3c2)N[C@@H](CCN2CCCCC2)C1=O [Compound 478, 6-chloro-N-(((3S,5S)-1-((R)-2-ethyl-3-methylbut-3-enyl)-2-oxo-3-(2-(piperidin-1-yl)ethyl)-1,4-diazepan-5-yl)methyl)-2-naphthamide]"
19,< 10000,"CC(=O)N[C@@H](Cc1ccc2ccccc2c1)[C@@H]1CCN(CC(c2ccccc2)c2ccccc2)C(=O)[C@H](CCCNC(=N)N)N1 [Compound 79, N-((S)-1-((3S,5S)-1-(2,2-diphenylethyl)-3-(3-guanidinopropyl)-2-oxo-1,4-diazepan-5-yl)-2-(naphthalen-2-yl)ethyl)acetamide]"
20,< 100,"N=C(N)NCCC[C@@H]1N[C@H](CNC(=O)c2ccc3ccccc3c2)CCN(CC(Oc2ccccc2)c2ccccc2)C1=O (stereo partly drawn) [Compound 295, N-(((3S,5S)-3-(3-guanidinopropyl)-2-oxo-1-(2-phenoxy-2-phenylethyl)-1,4-diazepan-5-yl)methyl)-2-naphthamide]"
21,< 100,"O=C(NC[C@@H]1CCN(CC(c2ccccc2)c2ccccc2)C(=O)[C@H](CCN2CCCCC2)N1)c1ccc2ccccc2c1 [Compound 368, N-(((3S,5S)-1-(2,2-diphenylethyl)-2-oxo-3-(2-(piperidin-1-yl)ethyl)-1,4-diazepan-5-yl)methyl)-2-naphthamide]"
22,< 100,"O=C(/C=C/c1ccc(F)cc1F)NC[C@@H]1CCN(CC(c2ccccc2)c2ccccc2)C(=O)[C@H](CCN2CCCCC2)N1 [Compound 400, (E)-3-(2,4-difluorophenyl)-N-(((3S,5S)-1-(2,2-diphenylethyl)-2-oxo-3-(2-(piperidin-1-yl)ethyl)-1,4-diazepan-5-yl)methyl)acrylamide]"
23,< 100,"O=C(NC[C@@H]1CCN(Cc2ccc(Cl)cc2Cl)C(=O)[C@H](CCN2CCCCC2)N1)c1ccc2cc(Cl)ccc2c1 [Compound 508, 6-chloro-N-(((3S,5S)-1-(2,4-dichlorobenzyl)-2-oxo-3-(2-(piperidin-1-yl)ethyl)-1,4-diazepan-5-yl)methyl)-2-naphthamide]"
24,< 10000,"CC(C)[C@H](N)C(=O)NCC[C@@H]1N[C@H](CNC(=O)c2ccc(Cl)c(Cl)c2)CCN(Cc2ccc(Cl)cc2Cl)C1=O [Compound 506, N-(((3S,5S)-3-(2-((S)-2-amino-3-methylbutanamido)ethyl)-1-(2,4-dichlorobenzyl)-2-oxo-1,4-diazepan-5-yl)methyl)-3,4-dichlorobenzamide]"
25,< 1000,"N=C(N)NCCC[C@@H]1N[C@H](CNC(=O)c2ccc3ccccc3c2)CCN(CCC2CC3CCC2C3)C1=O (stereo partly drawn) [Compound 243, N-(((3S,5S)-1-(2-(bicyclo[2.2.1]heptan-2-yl)ethyl)-3-(3-guanidinopropyl)-2-oxo-1,4-diazepan-5-yl)methyl)-2-naphthamide]"
26,< 1000,"CC[C@H](CN1CC[C@@H](CNC(=O)c2ccc(Cl)c(Cl)c2)N[C@@H](CCNc2ccccc2)C1=O)c1ccccc1 [Compound 428, 3,4-dichloro-N-(((3S,5S)-2-oxo-3-(2-(phenylamino)ethyl)-1-((S)-2-phenylbutyl)-1,4-diazepan-5-yl)methyl)benzamide]"
27,< 100,"CC[C@H](CN1CC[C@@H](CNC(=O)c2ccc(Cl)c(Cl)c2)N[C@@H](CCNC(C)(C)C)C1=O)c1ccccc1 [Compound 430, N-(((3S,5S)-3-(2-(tert-butylamino)ethyl)-2-oxo-1-((S)-2-phenylbutyl)-1,4-diazepan-5-yl)methyl)-3,4-dichlorobenzamide]"
